Experimental data as given in patent US20140329858A1, “Cyclic Urea Derivatives As Androgen Receptor Antagonists” (priority 2011, published 2014).

Test system: Vcap cells
Experiment: Dihydrotestosterone (DHT) mediated XTT cell proliferation assay for screening AR antagonists using Vcap cells
Assay type: cell-based
Conditions: Homo sapiens, 240 h, in the presence of 0.2 nM DHT, XTT readout on Day 10, IC50 curves from 8 concentrations
Summary of the method: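 VCaP cells, starved 5 days in phenol red-free DMEM with 8% charcoal-stripped serum, were plated and treated on Day 4 with compound (0.1 nM-30 μM, 8 concentrations) plus 0.2 nM DHT, redosed Day 7. On Day 10 viability was read by XTT at 465 nm; IC50 from sigmoidal dose-response fit.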

Going from `COCCONC(=O)c1ccc(N2C(=O)N(c3ccc(C#N)c(C(F)(F)F)c3)[C@H]3CCCC[C@@H]32)cc1F` [Example 29, 4-((3aS,7aS)-3-(4-Cyano-3-(trifluoromethyl)phenyl)-2-oxooctahydro-1H-benzo[d]imidazol-1-yl)-2-fluoro-N-(2-methoxyethoxy)benzamide] to `N#Cc1ccc(N2C(=O)N(c3ccc(C(=O)NCCO)c(F)c3)[C@H]3CCCC[C@@H]32)cc1C(F)(F)F` [Example 33, 4-((3aS,7aS)-3-(4-cyano-3-(trifluoromethyl)phenyl)-2-oxooctahydro-1H-benzo[d]imidazol-1-yl)-2-fluoro-N-(2-hydroxyethyl)benzamide], the IC50 falls from 176 nM to 43.6 nM (4-fold). The second is the more potent here.

First: N#Cc1ccc(N2C(=O)N(c3ccc(C(N)=O)c(F)c3)[C@H]3CCCC[C@@H]32)cc1C(F)(F)F [Example 31, 4-((3aS,7aS)-3-(4-cyano-3-(trifluoromethyl)phenyl)-2-oxooctahydro-1H-benzo[d]imidazol-1-yl)-2-fluorobenzamide]
Second: CC(=O)c1ccc(N2C(=O)N(c3ccc(C#N)c(C(F)(F)F)c3)[C@H]3CCCC[C@@H]32)cc1F [Example 45, 4-((3aS,7aS)-3-(4-acetyl-3-fluorophenyl)-2-oxooctahydro-1H-benzo[d]imidazol-1-yl)-2-(trifluoromethyl)benzonitrile]
The IC50 of the first is 27-fold lower: 37.2 nM for the first, 1020 nM for the second.

Compared with `N#Cc1ccc(N2C(=O)N(c3ccc(C(=O)N[C@@H]4CCOC4)c(F)c3)[C@H]3CCCC[C@@H]32)cc1C(F)(F)F` [Example 36], `CNC(=S)c1ccc(N2C(=O)N(c3ccc(C#N)c(C(F)(F)F)c3)[C@H]3CCCC[C@@H]32)cc1F` [Example 41, 4-((3aS,7 aS)-3-(4-cyano-3-(trifluoromethyl)phenyl)-2-oxooctahydro-1H-benzo[d]imidazol-1-yl)-2-fluoro-N-methylbenzothioamide] is 1.5-fold lower in IC50: 203 nM for the first, 134 nM for the second. The second is the more potent here.

Going from `N#Cc1ccc(N2C(=O)N(c3ccc(C(=O)NC(CO)CO)c(F)c3)[C@H]3CCCC[C@@H]32)cc1C(F)(F)F` [Example 37, 4-((3aS,7aS)-3-(4-cyano-3-(trifluoromethyl)phenyl)-2-oxooctahydro-1H-benzo[d]imidazol-1-yl)-N-(1,3-dihydroxypropan-2-yl)-2-fluorobenzamide] to `N#Cc1ccc(N2C(=O)N(c3ccc(CO)c(F)c3)[C@H]3CCCC[C@@H]32)cc1C(F)(F)F` [Example 46, 4-((3aS,7aS)-3-(3-fluoro-4-(hydroxymethyl)phenyl)-2-oxooctahydro-1H-benzo[d]imidazol-1-yl)-2-(trifluoromethyl)benzonitrile], the IC50 falls from 6080 nM to 660 nM (9.2-fold).

First: N#Cc1ccc(N2C(=O)N(c3cc(Cl)cc(Cl)c3)[C@H]3CCCC[C@@H]32)cc1C(F)(F)F [Example 44, 4-((3aS,7aS)-3-(3,5-dichlorophenyl)-2-oxooctahydro-1H-benzo[d]imidazol-1-yl)-2-(trifluoromethyl)benzonitrile]
Second: N#Cc1ccc(N2C(=O)N(c3ccc(Cl)cc3)[C@H]3CCCC[C@@H]32)cc1C(F)(F)F [Example 61, 4-((3aS,7aS)-3-(4-chlorophenyl)-2-oxooctahydro-1H-benzo[d]imidazol-1-yl)-2-(trifluoromethyl)benzonitrile]
The IC50 of the first is 3.6-fold lower: 96.4 nM for the first, 348 nM for the second.

`CNC(=O)c1ccc(N2C(=O)N(c3ccc(C#N)c(C(F)(F)F)c3)[C@H]3CCCC[C@@H]32)cn1` [Example 54, 5-((3aS,7aS)-3-(4-cyano-3-(trifluoromethyl)phenyl)-2-oxooctahydro-1H-benzo[d]imidazol-1-yl)-N-methylpicolinamide] and `N#Cc1ccc(N2C(=O)N(c3ccc(C(N)=O)nc3)[C@H]3CCCC[C@@H]32)cc1C(F)(F)F` [Example 55, 5-((3aS,7aS)-3-(4-cyano-3-(trifluoromethyl)phenyl)-2-oxooctahydro-1H-benzo[d]imidazol-1-yl)picolinamide] are within 1.5-fold of each other in IC50: 245 nM for the first, 174 nM for the second.

First: CNC(=O)c1cc(N2C(=O)N(c3ccc(C#N)c(C(F)(F)F)c3)[C@H]3CCCC[C@@H]32)ccn1 [Example 56, 4-((3aS,7aS)-3-(4-cyano-3-(trifluoromethyl)phenyl)-2-oxooctahydro-1H-benzo[d]imidazol-1-yl)-N-methylpicolinamide]
Second: N#Cc1ccc(N2C(=O)N(c3ccnc(C(N)=O)c3)[C@H]3CCCC[C@@H]32)cc1C(F)(F)F [Example 57, 4-((3aS,7aS)-3-(4-cyano-3-(trifluoromethyl)phenyl)-2-oxooctahydro-1H-benzo[d]imidazol-1-yl)picolinamide]
The IC50 of the first is 6.9-fold higher: 1820 nM for the first, 265 nM for the second.

`N#Cc1ccc(N2C(=O)N(c3ccc4c(c3)CCO4)[C@H]3CCCC[C@@H]32)cc1C(F)(F)F` [Example 58, 4-((3aS,7aS)-3-(2,3-dihydrobenzofuran-5-yl)-2-oxooctahydro-1H-benzo[d]imidazol-1-yl)-2-(trifluoromethyl)benzonitrile] and `Cc1cc(N2C(=O)N(c3ccc(C#N)c(C(F)(F)F)c3)[C@H]3CCCC[C@@H]32)ccc1C(N)=O` [Example 70, 4-((3aS,7aS)-3-(4-cyano-3-(trifluoromethyl)phenyl)-2-oxooctahydro-1H-benzo[d]imidazol-1-yl)-2-methylbenzamide] are within 1.5-fold of each other in IC50: 547 nM for the first, 733 nM for the second.

`N#Cc1ccc(N2C(=O)N(c3cnccc3C3CC3)[C@H]3CCCC[C@@H]32)cc1C(F)(F)F` [Example 62, 4-((3aS,7aS)-3-(4-cyclopropylpyridin-3-yl)-2-oxooctahydro-1H-benzo[d]imidazol-1-yl)-2-(trifluoromethyl)benzonitrile] and `Cc1ccncc1N1C(=O)N(c2ccc(C#N)c(C(F)(F)F)c2)[C@H]2CCCC[C@@H]21` [Example 63, 4-((3aS,7aS)-3-(4-methylpyridin-3-yl)-2-oxooctahydro-1H-benzo[d]imidazol-1-yl)-2-(trifluoromethyl)benzonitrile] are within 1.5-fold of each other in IC50: 2160 nM for the first, 2290 nM for the second.

Going from `N#Cc1ccc(N2C(=O)N(c3ccc(C(N)=O)cc3)[C@H]3CCCC[C@@H]32)cc1C(F)(F)F` [Example 66, 4-((3aS,7aS)-3-(4-cyano-3-(trifluoromethyl)phenyl)-2-oxooctahydro-1H-benzo[d]imidazol-1-yl)benzamide] to `Cc1cc(N2C(=O)N(c3ccc(C#N)c(C(F)(F)F)c3)[C@H]3CCCC[C@@H]32)ccc1C(=O)O` [Example 69, 4-((3aS,7aS)-3-(4-cyano-3-(trifluoromethyl)phenyl)-2-oxooctahydro-1H-benzo[d]imidazol-1-yl)-2-methylbenzoic acid], the IC50 rises from 261 nM to greater than 10000 nM.

Molecule `CN1C(=O)N(c2ccc(C#N)c(C(F)(F)F)c2)[C@@H]2CCC(c3ccccc3)C[C@H]21` (stereo partly drawn) [Example 90, Trans-4-(3-methyl-2-oxo-5-phenyloctahydro-1H-benzo[d]imidazol-1-yl)-2-(trifluoromethyl)benzonitrile] has an IC50 of 372 nM.

Same assay, conditions: in the presence of 0.2 nM DHT, XTT readout on Day 10, IC50 curves from 8 concentrations

`CNC(=O)c1ccc(N2C(=O)N(c3ccc(C#N)c(C(F)(F)F)c3)[C@@H]3CC=CC[C@H]32)cc1F` (relative stereo) [Example 83a] and `CNC(=O)c1ccc(N2C(=O)N(c3ccc(C#N)c(C(F)(F)F)c3)C3CCC(O)CC32)cc1F` (single isomer, unassigned) [Example 82a, Trans-4-(3-(4-cyano-3-(trifluoromethyl)phenyl)-6-hydroxy-2-oxooctahydro-1H-benzo[d]imidazol-1-yl)-2-fluoro-N-methylbenzamide (+)] cannot be ordered by IC50: greater than 10000 nM for the first, greater than 10000 nM for the second.

Compared with `CNC(=O)c1ccc(N2C(=O)N(c3ccc(C#N)c(C(F)(F)F)c3)[C@@H]3CC=CC[C@H]32)cc1F` (relative stereo) [Example 83b], `CNC(=O)c1ccc(N2C(=O)N(c3ccc(C#N)c(C(F)(F)F)c3)C3CCC(O)CC32)cc1F` (single isomer, unassigned) [Example 82b, Trans-4-(3-(4-cyano-3-(trifluoromethyl)phenyl)-6-hydroxy-2-oxooctahydro-1H-benzo[d]imidazol-1-yl)-2-fluoro-N-methylbenzamide (−)] is 9.8-fold higher in IC50: 31.9 nM for the first, 312 nM for the second.
